Test: gradient 5% acetonitrile 3 min, to 50% in 2 min, to 85% in 15 min, held 3 min, 100 µL/min
Settings: column: Zorbax Extend-C18 2.1 x 50 mm; eluents: water / acetonitrile, 0.1% formic acid
In short: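 Using water and acetonitrile that each contained 0.1% formic acid, mixtures of ~100 pure standards were separated at 100 μL/min on a Zorbax Extend-C18 column (2.1 × 50 mm, 1.8 μm). The HPLC fed a quadrupole time-of-flight mass spectrometer working in positive and negative ionization mode, with dead and dwell volumes of 40 μL and 900 μL. Data were acquired over 3 months. Retention time was read from computationally picked adduct peaks after manual inspection of each.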

RP-LC retention time [s] | Structure (SMILES)
961 | COc1cccc(CNC(=O)C2(C)CCCN(C(=O)Nc3cc(C)cc(C)c3)C2)c1 (stereo not drawn)
872 | O=C(Nc1cccc(C(F)(F)F)c1)c1ccc(-n2cnc(NC(=O)C3CC3)c2)cc1
722 | CC1Oc2ccc(S(=O)(=O)N3CCC(C(=O)NCc4ccco4)CC3)cc2NC1=O (stereo not drawn)
782 | Cc1ccccc1-c1noc(CCc2nnc3ccc(N4CCOCC4)nn23)n1
783 | O=C(c1ccccc1F)N1CCC(n2nc(-c3ccsc3)ccc2=O)CC1
887 | CCn1cc(S(=O)(=O)Nc2ccc(C)c(C)c2)c2cccnc21
750 | COc1ccc(C2(C(=O)N3CCC(Cc4ccc(COc5ccncc5)cc4)CC3)CC2)cc1
946 | Cc1c(C(=O)OCC(=O)Nc2cccc(Cl)c2)nnn1-c1ccccc1
1350 | Cc1ccc(Cl)cc1NC(=O)C1CCCN(c2nc3ccccc3nc2C(F)(F)F)C1 (stereo not drawn)
854 | CN1C(=O)c2cc(C(=O)NCCCc3ccccc3)nn2CC1(C)C(=O)NC1CCCCC1 (stereo not drawn)
948 | Cc1nn(-c2ccccc2)c(C)c1S(=O)(=O)N1CCC(C(=O)Nc2ccc(F)cc2)CC1
972 | COc1ccc(-c2noc(C3CCCN3C(=O)Nc3cccc(Br)c3)n2)cc1 (stereo not drawn)
676 | O=C(NCC1CCCO1)c1ccc(CN2CCN(Cc3ccc(F)cc3)C(=O)C2=O)cc1 (stereo not drawn)
608 | CCCC(=O)Nc1ccc2c(c1)nc(CN1CCN(S(C)(=O)=O)CC1)n2CC
714 | O=C(NCc1ccc2c(c1)OCO2)C1CC(=O)N(c2ccc3c(c2)CCN3C(=O)C2CC2)C1 (stereo not drawn)
681 | Cc1ccc(Oc2cccc(C(=O)NCc3ccc(F)cc3)c2)nn1
912 | Cc1ccc2c(c1)N(S(C)(=O)=O)CCC(C(=O)Nc1ccc(C)c(C)c1)O2 (stereo not drawn)
940 | Cn1c(=O)c(=O)n(C)c2cc(N3CCCCC3)c(NC(=O)C3CCCCC3)cc21
659 | CC(C)CCNC(=O)N1CCC(c2cc(N)on2)CC1
868 | COc1ccc(NS(=O)(=O)c2ccc(-c3nnc(C4CCC4)o3)o2)cc1F
685 | COc1c(C(=O)N2CCN(C3CCCCC3)CC2)sc2ccc(F)cc12
775 | O=C(C1=CN(c2ccc(F)c(Cl)c2)c2cc(F)ccc2S1(=O)=O)N1CCOCC1

RP-LC retention time [s] | Structure (SMILES)
679 | CCN(CC)C(=O)[C@@H]1[C@H](c2cc(OC)c(OC)c(OC)c2)c2cc3c(cc2[C@H](O)[C@H]1CO)OCO3
702 | CN1C(=O)COc2cc(-c3noc(C(=O)NCC4CCCO4)n3)ccc21 (stereo not drawn)
607 | O=S(=O)(c1cccc(-c2cn3ccccc3n2)c1)N1CCCC1
1030 | Cc1nc2cc(-c3noc(C4CC(=O)N(c5ccccc5)C4)n3)ccc2n(C2CCCC2)c1=O (stereo not drawn)
1060 | CCCc1noc(-c2ccnc(-n3cnc(C(=O)NC4CCCCCC4)c3)c2)n1
915 | Cc1cccc(Cn2nc3ccc(S(=O)(=O)N4CCCCC4)cn3c2=O)c1
814 | CCC(C)NC(=O)NCCC1CCN(S(=O)(=O)c2ccc(F)cc2)CC1 (stereo not drawn)
752 | CCn1cnc(S(=O)(=O)N2CCCC(C(=O)N3CCN(c4ccc(F)cc4)CC3)C2)c1 (stereo not drawn)
616 | CN1CCN(CCCNC(=O)c2cc3occc3c(Nc3ccc(F)cc3)n2)CC1
590 | O=C(CN1CCOCC1)N1CCCCC1c1nc(C2CC2)no1 (stereo not drawn)
690 | CCc1c(C(=O)O)nnn1-c1ccccc1F
1040 | O=C(Cn1cnc2c(sc3nc(-c4ccccc4)ccc32)c1=O)Nc1ccc(F)c(F)c1
953 | Cc1cccc(Cn2c(=O)n(CCNC(=O)C3(c4ccccc4)CC3)c3ncccc32)c1
851 | CCCNC(=O)C1CCN(c2nc3ccc(-c4ccsc4)nc3s2)CC1
531 | Cc1cc(=O)n(CC(=O)N2CCN(c3ccc(-c4ccccn4)nn3)CC2)cn1
740 | COCCC1(NC(=O)C2CC2)CCN(S(=O)(=O)c2c(C)noc2C)CC1
886 | Cc1cc(C)n2c(Nc3ccc(Cl)cc3)c(-c3ccc(Cl)cc3)nc2n1
957 | COc1ccc(C2NC(=O)NC(C)=C2C(=O)OCCc2ccccc2)c(OC)c1 (stereo not drawn)
824 | CCCN1C(=O)c2c(C(=O)NCCC(C)C)ncn2CC1(C)C(=O)NCc1ccc(F)cc1 (stereo not drawn)
852 | O=C(Nc1ccc(N2CCOCC2)cc1)C1CCCN(c2nccnc2Oc2ccccc2)C1 (stereo not drawn)
929 | Cc1nc(OCC(=O)NCc2cccc(Cl)c2)c2c(C)c(C)oc2n1
597 | CCCN(C)C(=O)C1CCN(c2cn[nH]c(=O)c2)CC1

RP-LC retention time [s] | Structure (SMILES)
825 | COc1ccc(-c2ccc3nc(N4CCC(C(=O)O)CC4)sc3n2)cc1
723 | CCNc1nc(C)cc(N2CCN(S(=O)(=O)c3ccc(OC)c(C)c3)CC2)n1
946 | CCCCN(C)C(=O)Cn1cncc(-c2nc(-c3ccccc3)cs2)c1=O
576 | CCN1CCN(C(=O)CC2Sc3ncccc3N(CC)C2=O)CC1 (stereo not drawn)
699 | COc1cc(C(=O)N2CCN(c3cc(-c4cccs4)[nH]n3)CC2)cc(OC)c1OC
794 | O=C(Nc1ccccc1C(F)(F)F)N1CCN(c2ccc(=O)n(-c3ccc(F)cc3)n2)CC1
627 | Cn1c(SCc2ccc([N+](=O)[O-])cc2)nnc1-c1cccnc1
857 | COCc1cc(=O)n(CC(=O)Nc2cccc(SC)c2)c(N2CCOCC2)n1
929 | Cc1ccc(S(=O)(=O)N2CCC(n3cnc4c(C)cccc4c3=O)CC2)cc1
957 | CCN1C(=O)c2cccnc2Sc2cc(NC(=O)c3cccc(C(F)(F)F)c3)ccc21
612 | CC1=C(C(=O)Nc2cccc(C(=O)N3CCN(c4ccccn4)CC3)c2)SCCO1
803 | COCCN1C(=O)c2oc3ccc(F)cc3c(=O)c2C1c1ccc([N+](=O)[O-])cc1 (stereo not drawn)
649 | Cn1c(N2CCCC(C(=O)Nc3ccccc3)C2)cc(=O)n(C)c1=O (stereo not drawn)
724 | Cc1cc(Cl)ccc1NC(=O)N1CCCC1c1nncn1-c1ccccc1 (stereo not drawn)
829 | Cc1nnc(-c2ccc3ccn(CC(=O)Nc4ccc(F)c(F)c4)c3c2)o1
675 | COc1ccccc1OCC(=O)NCC1CCOCC1
693 | CCn1cc(-c2ccc(OC)cc2)cc1C(=O)NC(C)c1cccnc1 (stereo not drawn)
790 | CCCc1noc(-c2cccnc2N2CCCN(Cc3cc(C)ccc3C)CC2)n1
844 | COc1ccc2[nH]cc(CCN3CC(C(=O)Nc4ccc(Br)cc4)CC3=O)c2c1 (stereo not drawn)
807 | O=C(C1CCCN(S(=O)(=O)N2CCOCC2)C1)N1CCN(c2ccc(F)cc2)CC1 (stereo not drawn)
919 | CCS(=O)(=O)Nc1ccc(-c2noc(COc3ccc(OC)cc3)n2)cc1
854 | O=C(Cn1cccc1-c1nnc(-c2ccccc2)o1)NCc1cccs1

RP-LC retention time [s] | Structure (SMILES)
765 | O=C(Nc1cccn2ncnc12)c1ccccc1C(F)(F)F
724 | Cc1cc(C)c(C)c(S(=O)(=O)NCC(=O)NCC2CCCO2)c1C (stereo not drawn)
1090 | Cc1oc(-c2ccccc2)nc1Cc1noc(Cc2ccc(F)cc2)n1
701 | CCn1cnc(S(=O)(=O)N2CCC(C(=O)Nc3ccccc3)CC2)c1
617 | Cc1ccc2cc(CCC(=O)NCc3nc4ccccc4n3C)c(=O)[nH]c2c1
745 | CC(C)c1noc(-c2ccc(-n3cnc(C(=O)N4CCOCC4)c3)nc2)n1
821 | CCCN(CC1CCOC1)C(=O)Nc1ccccc1OC (stereo not drawn)
726 | CCNC(=O)Nc1ccc2c(c1)CN(Cc1cn(C(C)C)c3ccc(OC)cc13)CCO2
826 | Cc1ccccc1CN1N=C(C(=O)N2CCOCC2)S(=O)(=O)c2ccccc21
1090 | Cc1nc(-c2cn(C)c3ncccc23)sc1C(=O)Nc1ccccc1Cl
821 | COCCn1cc(CCNC(=O)Nc2ccc(Br)c(C)c2)c2cccnc21
526 | CC(C)CN1CCn2cc(C(=O)N3CCN(c4ccccn4)CC3)nc2C1
821 | Cc1ccc(NC(=O)NC2CCN(c3ccccc3)C2=O)cc1 (stereo not drawn)
679 | Cc1cc(=O)n(CC(=O)N2CCc3ccccc32)c(N2CCCCC2)n1
761 | CC1Oc2ccc(S(=O)(=O)N3CCC(C(=O)Nc4ccccc4F)CC3)cc2NC1=O (stereo not drawn)
1010 | CN(C(=O)Cc1nnc2cc(-c3nc(C4CC4)no3)ccn12)C1CCCCC1
1130 | C=CCn1c(=O)c2ccccc2n(Cc2nc(-c3ccc(Cl)cc3)no2)c1=O
1010 | CCN(CC)S(=O)(=O)c1ccc2c(c1)cc(C(=O)NCCc1c[nH]c3ccccc13)n2C
934 | O=C(Nc1nnc(SCc2nnc(-c3ccccc3)o2)s1)C1CCCCC1
650 | O=C(NCCCN1CCCC1=O)C1=C2CCCN2c2ccc(F)cc2S1(=O)=O
675 | Cc1oc(C2CCN(C(=O)Nc3ccc4c(c3)OCCO4)CC2)nc1C(=O)N(C)C
750 | Cc1ccccc1Nc1cc(C)n2c(=O)n(Cc3cccnc3)nc2n1

From the METLIN SMRT retention time set (Domingo-Almenara et al. 2019)
